pIC50: −log10 of the molar value.
Experiments:
[1] = molecular target: T1, HGK (Homo sapiens, UniProt O95819); assay: LabChip (Caliper) kinase assay, HGK; type: biochemical; details: for inhibition at 0.01 µM: compound at 10 nM; for inhibition at 0.01 µM / inhibition at 0.1 µM: read-out: remaining kinase activity (in %) / percentage of inhibition; for inhibition at 0.1 µM: compound at 100 nM; for pIC50: ATP at Km, read-out: CI50 (the source's name)
T1 construct: purchased Invitrogen
Description: (§1) The analysis of kinase activity described here was performed using LabChip (Caliper Life Sciences), specifically the Caliper LC3000 and the EZ Reader II instruments.
(§2) The kinase assay used measures the conversion of a fluorescent peptide (substrate) to a phosphorylated product. The reaction mixture, in a microplate well, is introduced by a capillary in a chip where the non-phosphorylated substrate and the phosphorylated product are separated by […]. The intensity of the fluorescent signal over time is related to the reaction progress. The phosphorylated product migrates quicker than the non-phosphorylated substrate and the signals of the two forms of the peptide appear as differentiated peaks. The Caliper determines the peak height and calculates the ratio of product to the peak sum (P/(P+S)). This value is used to compare wells with compounds and wells with controls and thus determine the % of inhibition for the given product.
(§3) The followings kinases were used for the enzymatic inhibition studies, between brackets the value of the Michaelis-Menten constant, Km, of the ATP (Adenosine triphosphate) for each kinase, in μM: obtained from Carna Biosciences: MAPKAPK2 (4.6), AurA (3.6), AurB (5), PKCζ (3.8), RSK1 (23.3), PRAK (5), Erk1 (33.4), PKD2 (32.1), CK1d (16.3), CHK1 (33), ABL (61.7), FYN (36), LYNa (17), CHK2 (57.8), MET (79.5), LCK (28.5), SRC (38), GSK3β (7.3), Erk2 (62.1), PKACα (1.7), AKT2 (186.1), INSR (871.8), p38a (396.5), AKT1(48), MSK1 (21.2), PKCβ2 (84.8), ROCK2 (3.3), PIM2 (4.9), AMPK (38.6), KDR (164.8), IRAK4 (196.5), SGK1 (121.8), SYK (33.5); obtained from Invitrogen: CDK2 (57.6), BTK (123), HGK (80); obtained from Upstate: MST2 (36.6), PKGα (16), PAK2 (1.9), IGF1R (320), FGFR1 (171), MARK1 (33), CAMK2δ (22.4), c-TAK1 (66), DYRK1a (18.1), CaMK4 (3.9), FLT3 (350), c-Raf (6.2), P70S6K (95).
(§4) The compounds were dissolved in 100% DMSO and were diluted at 25 times the final concentration desired for the assay. In the case of the determination of Cl50, serial dilutions were made to reach eight concentrations and give rise to the inhibition curve. 1 μL of each concentration is transferred, in duplicate to a 384-well microplate. 12 μL of enzymatic buffer is added to each well containing purified kinase (several suppliers as indicated above), 100 mM HEPES, pH 7.5, 1 mM DTT (Calbiochem), 0.002% Brij-35 (Sigma) and also in presence of 10 mM MgCl2 as cofactor, except for INSR and IRAK4 wherein 10 mM MnCl2 is used instead of MgCl2. For the kinases CAMK26 and CAMK4, 1 mM CaCl2 and 6.7 μg/mL of calmodulin are also added. For KDR kinase, 0.05% of the CHAPSO detergent is added. For the c-Raf kinase, 10 mM MnCl2 is added. For PKCβ2 0.02 μg/mL of PS/PMA is added. For PKGα se 10 μM of cGMP (cyclic guanosine monophosphate) is added. The compound and the enzyme are left for 15 minutes preincubation and, then, the following are added to each well: 12 μL of peptide buffer/ATP containing 100 mM HEPES, pH 7.5, 1.5 μM peptide marker with fluorescein (specific for the corresponding kinase), ATP (at concentration KM), and 0.002% Brij-35 to start the reaction. Generally, the reactions are incubated for 1-1.5 h at ambient temperature to obtain an adequate conversion (15-40%) of the peptide to the phosphorylated product. The reactions were ended by the addition of 45 μL of buffer containing 0 mM EDTA. The microplates were read by the LabChip 3000 using a 12-channel LabChip. The P/(P+S) values were obtained as described above and the CI50 curves were generated using XIfit.
(§5) Table 9a has the 0150 data obtained in pairs of compound-kinase selected from the compounds of formula (VII), (VIII), (IX), (XVI), (XVII) and (XVIII) after taking inhibition measurements at 100 nM and 10 nM. Those couples that provide >70% of inhibition at 10 nM were consider for measuring its IC50. […]

[2] = molecular target: T2, Dyrk1a (Homo sapiens, UniProt Q13627); assay: LabChip (Caliper) kinase assay, Dyrk1a; type: biochemical; details: for inhibition at 0.01 µM: compound at 10 nM; for inhibition at 0.01 µM / inhibition at 0.1 µM: read-out: remaining kinase activity (in %) / percentage of inhibition; for inhibition at 0.1 µM: compound at 100 nM; for pIC50: ATP at Km, read-out: CI50 (the source's name)
T2 construct: purchased Upstate
Description: as §1, §2, §3, §4, §5

T1 sequence (O95819 whole entry, species assumed): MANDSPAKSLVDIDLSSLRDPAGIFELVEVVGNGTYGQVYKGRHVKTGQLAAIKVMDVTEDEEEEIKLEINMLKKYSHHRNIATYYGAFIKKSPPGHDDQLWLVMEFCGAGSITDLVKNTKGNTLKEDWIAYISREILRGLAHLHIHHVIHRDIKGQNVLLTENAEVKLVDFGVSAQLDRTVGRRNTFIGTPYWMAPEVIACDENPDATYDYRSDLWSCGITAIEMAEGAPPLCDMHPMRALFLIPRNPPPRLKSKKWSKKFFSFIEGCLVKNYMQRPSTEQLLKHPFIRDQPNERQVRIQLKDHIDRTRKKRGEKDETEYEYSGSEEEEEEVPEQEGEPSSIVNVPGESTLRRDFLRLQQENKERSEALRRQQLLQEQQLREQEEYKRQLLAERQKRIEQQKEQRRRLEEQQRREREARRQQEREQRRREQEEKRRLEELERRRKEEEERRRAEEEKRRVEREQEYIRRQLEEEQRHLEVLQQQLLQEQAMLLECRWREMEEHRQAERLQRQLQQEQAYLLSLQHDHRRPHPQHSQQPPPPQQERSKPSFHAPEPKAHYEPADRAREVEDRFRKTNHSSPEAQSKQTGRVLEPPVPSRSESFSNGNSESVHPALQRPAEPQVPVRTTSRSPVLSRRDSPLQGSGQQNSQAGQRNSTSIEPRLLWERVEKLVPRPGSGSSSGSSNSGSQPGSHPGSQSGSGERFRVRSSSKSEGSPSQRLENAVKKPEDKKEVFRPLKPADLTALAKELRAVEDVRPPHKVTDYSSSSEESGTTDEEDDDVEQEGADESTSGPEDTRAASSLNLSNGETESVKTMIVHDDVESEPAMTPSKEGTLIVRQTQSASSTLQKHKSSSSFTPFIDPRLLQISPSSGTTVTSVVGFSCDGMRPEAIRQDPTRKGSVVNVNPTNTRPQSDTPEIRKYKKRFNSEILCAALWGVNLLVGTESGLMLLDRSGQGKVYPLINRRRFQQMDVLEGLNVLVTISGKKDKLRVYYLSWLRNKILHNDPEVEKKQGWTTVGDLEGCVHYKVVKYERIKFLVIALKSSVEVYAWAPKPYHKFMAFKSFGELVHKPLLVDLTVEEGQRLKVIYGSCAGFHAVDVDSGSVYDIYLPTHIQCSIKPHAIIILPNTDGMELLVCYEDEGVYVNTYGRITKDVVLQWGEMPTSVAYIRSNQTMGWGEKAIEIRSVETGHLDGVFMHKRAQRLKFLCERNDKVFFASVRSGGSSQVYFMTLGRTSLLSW

Compound	inhibition at 0.01 µM [1] [%]	inhibition at 0.1 µM [1] [%]	inhibition at 0.01 µM [2] [%]	inhibition at 0.1 µM [2] [%]	pIC50 [1]	pIC50 [2]
C[C@@H]1O[C@@H](n2c3ccccc3c3c4c(c5c6ccccc6[nH]c5c32)C(=O)NC4=O)[C@H](O)[C@H](O)[C@H]1O [formula (III), N^13-1′-β-L-rhamnosylarcyriaflavin]	30	89	87	103	–	–
C[C@@H]1O[C@@H](n2c3ccccc3c3c4c(c5c6ccccc6[nH]c5c32)C(=O)NC4=O)C[C@H](O)[C@H]1O [formula (IV), N^13-1′-β-L-olivosylarcyriaflavin]	9	62	32	75	–	–
C[C@]12O[C@H](C[C@@H](O)[C@H]1O)n1c3ccccc3c3c4c(c5c6ccccc6n2c5c31)C(=O)NC4=O [formula (IX), N^12-5′(S)-N^13-1′-(R)-L-digitoxosylarcyriaflavin]	–	–	–	–	< 8.00	< 8.00
C[C@@H]1O[C@@H](n2c3ccccc3c3c4c(c5c6ccccc6[nH]c5c32)C(=O)NC4=O)C[C@@H](O)[C@H]1O [formula (V), N^13-1′-β-L-digitoxosylarcyriaflavin]	54	90	49	87	–	–
C[C@H]1O[C@@H](n2c3ccccc3c3c4c(c5c6ccccc6[nH]c5c32)C(=O)NC4=O)C[C@@H](O)[C@@H]1O [formula (VI), N^13-1′-β-D-olivosylarcyriaflavin]	35	83	62	94	–	–
C[C@]12O[C@H]([C@H](O)[C@H](O)[C@H]1O)n1c3ccccc3c3c4c(c5c6ccccc6n2c5c31)C(=O)NC4=O [formula (VII), N^12-5′(S)-N^13-1′-(R)-L-rhamnosylarcyriaflavin]	–	–	–	–	9.11	8.40
C[C@@H]1O[C@@H](n2c3ccccc3c3c4c(c5c6ccccc6[nH]c5c32)CNC4=O)[C@H](O)[C@H](O)[C@H]1O [formula (XII), N^13-1′-β-L-rhamnosyl-k252c]	44	91	101	115	–	–
C[C@@H]1O[C@@H](n2c3ccccc3c3c4c(c5c6ccccc6[nH]c5c32)CNC4=O)C[C@H](O)[C@H]1O [formula (XIII), N^13-1′-β-L-olivosyl-k252c]	16	76	42	89	–	–
C[C@@H]1O[C@@H](n2c3ccccc3c3c4c(c5c6ccccc6[nH]c5c32)CNC4=O)C[C@@H](O)[C@H]1O [formula (XIV), N^13-1′-β-L-digitoxosyl-k252c]	20	78	15	73	–	–
C[C@H]1O[C@@H](n2c3ccccc3c3c4c(c5c6ccccc6[nH]c5c32)CNC4=O)C[C@@H](O)[C@@H]1O [formula (XV), N^13-1′-β-D-olivosyl-k252c]	36	89	14	50	–	–
C[C@]12O[C@H](C[C@@H](O)[C@H]1O)n1c3ccccc3c3c4c(c5c6ccccc6n2c5c31)CNC4=O [formula (XVIII), N^12-5′(S)-N^13-1′-(R)-L-digitoxosyl-k252c]	–	–	–	–	< 8.00	< 7.00

From patent US8598132B2, “Glycosylated indolocarbazoles, method for obtaining same and uses thereof” (Universidad de Oviedo, priority 2008, dated 2013)
